One may read the IC50 as the concentration that gives 50% inhibition.

Drawing on BindingDB's records for doi:10.1016/j.ejmech.2023.115129 (n/a, 2023), this text covers IC50 for one compound.

The structures appear in SMILES notation.

For this test, the target named is Replicase polyprotein 1ab (Severe acute respiratory syndrome coronavirus 2, UniProt P0DTD1). Kind of test: Inhibition of full-length recombinant SARS-CoV-2 3CL protease expressed in Escherichia coli BL21 (DE3) cells using fluorogenic MCA-AVLQSGFR-Lys (Dnp)-Lys-NH2 substrate preincubated for 10 mins followed by substrate addition measured for 3.5 mins by FRET assay.

On to `C/N=c1\nc(-c2ccc(OC)c(OC)c2)n(-c2ccc(F)cc2)s1`, for which the IC50 came out at 252 nM.
